# Legend:
# [1] = tested on: Factor Xa procoagulant activity on THP-1 cells; test: Generation of Factor Xa by monocytes (THP-1), clotting assay; type: cell-based; settings: for Factor Xa / Clotting time: peptides 0.5 mM; for Clotting time: mean ± SD of at least 3 experiments
# Method: Factor Xa generation was determined by a modification of the method of Miletich et al. (1978), J. Biol. Chem. 253: 6908-6916. THP-1 cells (ATCC; […]) resuspended in RPMI 1640 (Bio Whittaker, Walkersville,Md.) were incubated with 100 μM ADP (Sigma), 2.5 mM CaC2, 1 or 5 μg/ml Factor X (Hematologic Technologies Inc.) and 0.5 mM peptides at room temperature. After 20 minutes, 100 μl of the reaction mixture was transferred to 37° C. and supplemented with 100 μl of bovine factor VII- and Factor X-deficient plasma (Sigma). Coagulation was initiated by adding 100 μl of 25 mM CaC2 and the clotting time was determined. Factor Xa procoagulant activity (ng/ml) was calculated by means of a standard curve constructed by serial concentrations of Factor Xa (Hematologic Technologies Inc.) from 50 to 250 ng/ml.
# [2] = tested on: leukocyte migration into the CSF; test: Anti-inflammatory activity in rabbits with meningitis (FIG. 5, FIG. 6); type: in vivo, rabbit; settings: intravenous
# Source text: This inhibitory activity implies that antibodies to FHA which bind to any of the three Factor X regions would disturb leukocyte recruitment. This is to be distinguished from anti-FHA antibodies that bind to endothelia by recognizing an integrin receptor which is an endothelial cell component (see below). […] This is shown in FIG. 6 where various doses of antibody were given to rabbits and the number of leukocytes recruited into the cerebrospinal fluid in response to pneumonoccal meningitis was determined.
# [3] = tested on: 125I-Factor X binding to human neutrophils (CD11b/CD18); test: Inhibition of 125I-Factor X binding to neutrophils; type: cell-based; settings: for inhibition of 125I-Factor X binding to neutrophils: peptides 0.5 mM, native FHA 0.3 μM
# Method: FIG. 15 is a bar graph representation of the inhibition of ^125 I-Factor X binding to neutrophils by FHA, FHA- or Factor X-peptides as identified in Table 6. The concentration of inhibiting substances was: peptides 0.5 mM, native FHA 0.3 μM. Values represent the mean±standard deviation of triplicate experiments.
# FIG. 16 is a graphical representation of the FHA, FHA- or Factor X-peptide concentration effect on the inhibition of ^125 I-Factor X binding to neutrophils. FHA peptide II (Square) and Factor X peptide II (Circle) at 10^-2 to 5×10^2 μM; FHA at 10^-6 to […] (triangle). Values are representative of triplicate experiments (standard deviations <15%).
# Human Factor X (Sigma or Hematologic Technologies Inc.) was labeled with ^125 I using Iodogen (Pierce Chemical Co.) Human neutrophils were isolated from heparinized blood according to the manufacturer's specification using Neutrophil Isolation Medium (Cardinal Associates, Santa Fe, N. Mex.) and washed three times with 5 mM EDTA-phosphate-buffered saline (PBS), pH 7.2, at 4° C. To eliminate platelet contamination, neutrophils were incubated with autologous serum containing 5 mM EDTA for 30 mins. at 37° C., washed three times with ice-cold PBS, pH 7.2, and resuspended in RPMI 1640 tissue culture medium (Whittaker M.A. Bioproducts, Walkersville, Md.) at 4° C. Binding of ^125 I-Factor X to neutrophils was measured based on a method described by Altieri et al. (1991) Science 254: 1200-1202. Briefly, 200 μl of neutrophils (1.5×10^7 /ml) were supplemented with 17.5 μl of 50 mM CaCl2, stimulated with 3.5 μl of 100 μM NH2 -formyl-Met-Leu-Phe (Sigma), and mixed with 30 μl of 10.3 μg/ml ^125 I-Factor X and 100 μl of 1.75 mM of peptide. Buffer alone and a peptide of scrambled sequence served as controls in each of the 3 experiments. After incubation for 20 mins. at room temperature, neutrophil-bound ^125 I-Factor X was separated from unbound ^125 I-Factor X by centrifugation of 300 μl aliquots through 50 μl of a mixture of Hi phenyl silicone oil DC 550 and methyl silicone oil DC 200 5:1 (Nye Inc. Specialty Lubricants, New Bedford, Mass.) at 12,000×g for 2 mins. Aliquots of the supernatant (cell free ^125 I-Factor X) and the cell pellet (cell bound ^125 I-Factor X) were counted in a gamma-counter. Nonspecific binding (~50,000 cpm) was determined by adding a 100 fold excess of unlabeled Factor X, and subtracted from total radioactivity (~500,000 cpm for controls).
# [4] = tested on: recognition of C3bi by antibody 12.1F9; test: Inhibition of binding of 12.1F9 to E^C3bi by peptides; design: species or system human; settings: peptides 50 μg/ml
# Source text: Values are normalized to a control value of 100; data are expressed as the mean±SD of 6 experiments with duplicate wells.
# [5] = ciliary extracts; cited from earlier work
# [6] = tested on: Factor X binding to CR3; settings: cited from earlier work
# [7] = tested on: peripheral white blood cells; test: Rat meningitis model: peripheral white blood cell concentrations; type: in vivo, female Wistar rats; settings: following i.v. administration
# Method: (§1) Three hours after LOS inoculation, 5 μCi of ^125 I-radiolabelled albumin in 50 μl normal saline was administered intravenously. One hour later, CSF was collected via intracisternal puncture and blood samples were collected via intracardiac puncture. CSF leukocytosis was determined by manually counting white blood cells using a hemacytometer, and blood-brain barrier permeability was determined as the percent of radioactivity in whole blood that was present in the CSF. Blood samples were obtained immediately prior to inoculation, immediately prior to treatment, and at 4 hours post-inoculation for determination of peripheral white blood cell concentrations.
# [8] = Stability of FHA II peptide in 50% rabbit plasma; type: in vitro ADME; settings: 37° C.
# Method: To determine the stability of the FHA II peptide, the unmodified or the acetylated-amidated peptide were incubated in 50% rabbit plasma at 37° C.
# [9] = tested on: blood-brain barrier permeability; test: Rat meningitis model (LOS): blood-brain barrier permeability (125I-albumin); type: in vivo, female Wistar rats; settings: for BBB permeability: percent of radioactivity in whole blood present in CSF
# Method: Briefly, anesthetized female Wistar rats were placed under a micromanipulator and inoculated intracisternally with a 25 gauge needle. After removal of 50 μl of CSF (without visible blood contamination), rats were inoculated intracisternally with 50 μl (20 ng) of LOS using a 1 ml syringe with a 25 gauge needle. Ten to fifteen minutes after inoculation with LOS, the rats were treated by intravenous administration of the test substance: a solution of an FHA peptide in PBS, a solution of a control peptide in PBS, or an equal volume of PBS alone.
# as §1
# [10] = tested on: cerebral infarct; test: Rat transient middle cerebral artery occlusion (MCAO): infarct volume; type: in vivo, male Wistar rats; settings: 50 nmol i.v. at reperfusion then 150 nmol i.p.; 2 hour MCAo, 2 day survival
substance,measurement,setting,value
"DEETVK [scrambled FHA II, reference compound]",Factor Xa,[1],165.0 ng/mL
same,Factor Xa,[1]; control FHA II peptide,165 ng/mL
same,Clotting time,[1],23.1 ± 1.0 s
"native FHA: Filamentous hemagglutinin, 220kD surface associated protein of Bordetella pertussis (List Biologicals)",antiinflammatory activity in meningitis (in words),[2],antiinflammatory activity in the sense of inhibiting leukocyte migration into the CSF
same,IC50,[3],0.1 µM
same,inhibition of 125I-Factor X binding to neutrophils,[3],70±4%
same,block of binding of 12.1F9 to E^C3bi (in words),[4],blocked binding almost completely
same,Adherence index,"[4]; normalized to control value of 100, 6 experiments",16 ± 16
same,binding to lactosylceramide (in words),[5],binds to lactosylceramide
GYDTKQEDG [Factor X II],IC50,[3],500 µM
same,reduction of Factor Xa production,"[1]; 0.5 mM, vs scrambled FHA II, 20 min",> 90%
same,Factor Xa,[1],< 10 ng/mL
same,Clotting time,[1],55.2 ± 4.0 s
same,inhibition of binding of CR3 bearing cells to Factor X (in words),[6],competitively inhibit the binding of CR3 bearing tissue culture cells to purified Factor X
Ac-ETKEVDG-NH2 [Acetyl/Amide-FHA II],neutropenia,[7],No neutropenia was observed
same,stability in plasma (in words),[8]; 48 hours,remained unchanged over 48 hours
ETKEVDG [FHA II],IC50,[3],10 µM
same,inhibition of 125I-Factor X binding to neutrophils,[3],87±8%
same,effect on Factor Xa generation (in words),[1],did not interfere with the generation of Factor Xa procoagulant activity
same,Factor Xa,[1],86.0 ng/mL
same,Clotting time,[1],30.0 ± 5.0 s
same,time in which concentration decreased by half,[8],4 to 6 h
"LGYQAK (UniProt P12255 1979-1984, looked up, fragment) [FHA Ia]",Factor Xa,[1],57.4 ng/mL
same,Clotting time,[1],34.1 ± 1.1 s
RGDPHQGVLAQGDIIMDAKG [FHA Ca],neutropenia,[7],No neutropenia was observed
same,BBB permeability,[9]; 50 nmol,5.8 ± 2.7%
same,BBB permeability,[9]; 100 nmol,3.0 ± 2.2%
same,Inhibition of blood-brain barrier permeability (in words),"[9]; rat, in vivo",appeared to be dose dependent
same,volume of the infarct,[10],approximately 25 % of the hemisphere
